From patent US20080227813A1, “Pharmaceutical compositions and methods for treating diseases associated with neurodegeneration” (priority 2006, published 2008) come the findings set out here.

In this assay the test system is mSOD1^(G93A) mice. Nature of the assay: Lifespan and disease progression in mSOD1(G93A) ALS mice. The assay is classed as in vivo, mouse. How it is done: Nat. Med. 10(4), p. 345-7 (2004), which is incorporated by reference.
Thus, Compound I-treated mice lived an average of 153 days (±2.6 SEM, n=7). This represents a significant increase in lifespan of over 22% (p=<0.001). The effect of beginning Compound I treatment at the time of disease onset was also tested by starting treatment at 70 days of age, when the first signs of locomotor defects are observed. Compound I treatment from 70 days of age extended the mean lifespan of mSOD1^(G93A) mice by 23 days, from 125 days (±1.8 SEM, n=18) in the untreated group to 148 days (±1.5 SEM, n=5) in the treated group. This represents an increase in lifespan of 18% (p=<0.001).

Where [1] appears, read: treatment from 70 days of age, vs untreated.

The compound `[O-][n+]1cccc(/C(Cl)=N/OC[C@H](O)CN2CCCCC2)c1` [Compound I, N-[2-hydroxy-3-(1-piperidinyl)-propoxy]-pyridine-1-oxide-3-carboximidoyl chloride] came in with an average lifespan (10 mg/kg ip daily from 35 days of age, untreated 125 days) of 153 days. Further, the mean lifespan (10 mg/kg ip daily from 70 days of age, untreated 125 days) was 148 days. Also, the progression of disease result (ALS transgenic mouse model) was “significantly delayed the progression of disease”. Besides, for the setting “given pre-symptomatically and at disease onset, study rationale statement”, the extension of survival result is reported as “five weeks”. Besides, the increase in lifespan entry is “over 22%” (treatment from 35 days of age, vs untreated) and 18% under setting [1]. For the same compound, under setting [1], the “extension of mean lifespan” value is recorded as 23 days.
